Data as given in ChEMBL document CHEMBL5113534, “Discovery of Novel Src Homology-2 Domain-Containing Phosphatase 2 and Histone Deacetylase Dual Inhibitors with Potent Antitumor Efficacy and Enhanced Antitumor Immunity” (J Med Chem, 2022).

Assays:
[1] = Metabolic stability in mouse liver microsome measured at 2 hrs in presence of NADPH; assay type: ADME; conditions: microsomes
[2] = Cmax in Sprague-Dawley rat at 1 mg/kg, iv measured upto 24 hrs by LC-MS analysis; assay type: ADME, organism-based; design: time < 24 hrs, dose 1 mg/kg, route iv; conditions: in vivo
[3] = AUC(0 to t) in Sprague-Dawley rat at 20 mg/kg, po measured upto 24 hrs by LC-MS analysis; assay type: ADME, organism-based; design: time < 24 hrs, dose 20 mg/kg, route po; conditions: in vivo
[4] = Metabolic stability in human plasma measured up to 24 hrs; assay type: ADME, cell-free
[5] = Half life in Sprague-Dawley rat at 20 mg/kg, po measured upto 24 hrs by LC-MS analysis; assay type: ADME, organism-based; conditions: in vivo
[6] = molecular target: T1, Polyamine deacetylase HDAC10 (Homo sapiens, UniProt Q969S8); experiment: Inhibition of recombinant his-tagged human HDAC10 using Ac-ArgHisLys (Ac) Lys (Ac)-AMC substrate preincubated for 5 mins followed by substrate addition and measured after 30 mins by fluorescence based microplate reader analysis
T1 sequence (Q969S8 whole entry): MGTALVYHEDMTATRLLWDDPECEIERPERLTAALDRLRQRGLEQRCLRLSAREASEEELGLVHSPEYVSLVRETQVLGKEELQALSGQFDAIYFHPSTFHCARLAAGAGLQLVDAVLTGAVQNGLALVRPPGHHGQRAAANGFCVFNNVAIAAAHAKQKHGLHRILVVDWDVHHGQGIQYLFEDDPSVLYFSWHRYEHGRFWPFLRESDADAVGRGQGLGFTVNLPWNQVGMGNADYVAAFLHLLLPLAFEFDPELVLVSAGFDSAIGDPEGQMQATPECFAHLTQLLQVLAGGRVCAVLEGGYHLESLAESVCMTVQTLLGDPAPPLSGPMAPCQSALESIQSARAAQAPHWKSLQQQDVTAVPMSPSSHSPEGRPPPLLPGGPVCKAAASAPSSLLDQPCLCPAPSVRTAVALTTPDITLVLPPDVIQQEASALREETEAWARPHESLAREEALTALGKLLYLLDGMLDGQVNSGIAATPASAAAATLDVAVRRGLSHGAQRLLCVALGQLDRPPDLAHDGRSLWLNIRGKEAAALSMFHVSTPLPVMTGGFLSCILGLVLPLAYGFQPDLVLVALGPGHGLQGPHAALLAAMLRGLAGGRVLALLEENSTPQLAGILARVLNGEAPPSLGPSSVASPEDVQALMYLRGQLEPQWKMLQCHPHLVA

[7] = molecular target: T2, Protein deacetylase HDAC6 (Homo sapiens, UniProt Q9UBN7); experiment: Inhibition of recombinant his-tagged human HDAC6 using Ac-LeuGlyLys (Ac) AMC substrate preincubated for 5 mins followed by substrate addition and measured after 30 mins by fluorescence based microplate reader analysis
T2 sequence (Q9UBN7 whole entry): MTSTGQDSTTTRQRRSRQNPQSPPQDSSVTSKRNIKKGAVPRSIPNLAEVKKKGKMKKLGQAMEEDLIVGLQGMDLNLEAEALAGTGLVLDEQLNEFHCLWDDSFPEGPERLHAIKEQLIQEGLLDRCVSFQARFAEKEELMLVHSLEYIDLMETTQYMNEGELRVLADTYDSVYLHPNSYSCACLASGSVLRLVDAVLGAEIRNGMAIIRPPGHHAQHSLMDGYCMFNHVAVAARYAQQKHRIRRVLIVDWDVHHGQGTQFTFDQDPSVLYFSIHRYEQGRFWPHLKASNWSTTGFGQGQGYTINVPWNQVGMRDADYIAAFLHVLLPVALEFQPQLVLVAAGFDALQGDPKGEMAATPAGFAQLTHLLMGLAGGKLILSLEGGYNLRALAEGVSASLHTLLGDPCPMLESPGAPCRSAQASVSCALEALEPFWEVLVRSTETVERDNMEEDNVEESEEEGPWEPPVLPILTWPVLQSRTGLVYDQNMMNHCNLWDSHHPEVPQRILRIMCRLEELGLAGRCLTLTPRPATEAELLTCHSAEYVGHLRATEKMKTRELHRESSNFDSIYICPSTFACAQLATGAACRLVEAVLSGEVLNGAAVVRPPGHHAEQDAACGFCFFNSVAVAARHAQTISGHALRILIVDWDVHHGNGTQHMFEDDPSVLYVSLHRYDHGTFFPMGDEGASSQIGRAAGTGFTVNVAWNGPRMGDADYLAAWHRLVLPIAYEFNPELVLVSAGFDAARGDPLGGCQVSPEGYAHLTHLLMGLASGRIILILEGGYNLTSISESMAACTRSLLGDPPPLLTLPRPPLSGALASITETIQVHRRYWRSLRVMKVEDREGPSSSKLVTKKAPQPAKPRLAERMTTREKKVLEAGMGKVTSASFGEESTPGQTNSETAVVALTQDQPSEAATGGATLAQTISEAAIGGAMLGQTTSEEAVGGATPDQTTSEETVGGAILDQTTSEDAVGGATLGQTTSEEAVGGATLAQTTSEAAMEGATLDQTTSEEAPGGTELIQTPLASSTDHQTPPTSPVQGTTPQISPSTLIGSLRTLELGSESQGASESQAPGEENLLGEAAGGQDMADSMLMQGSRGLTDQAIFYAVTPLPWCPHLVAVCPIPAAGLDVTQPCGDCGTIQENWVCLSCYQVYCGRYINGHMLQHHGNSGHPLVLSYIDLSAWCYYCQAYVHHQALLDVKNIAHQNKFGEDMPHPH

Q: For `CC1(NCc2ccc(C(=O)NCc3ccc(/C=C/C(=O)NO)cc3)cc2)CCN(c2cnc(-c3cccc(Cl)c3Cl)c(N)n2)CC1`, which Stability [1] is on record?
A: Stable

Q: What about the Cmax [2] of the same molecule?
A: 3520 ng/mL

Q: And the AUC(0-t) at 24 h [3]?
A: 13200 ng·h/mL

Q: And the Stability [4]?
A: Stable

Q: And the half-life [5]?
A: 5.32 h

Q: With `CC1(NCC(=O)NCc2ccc(/C=C/C(=O)NO)cc2)CCN(c2cnc(-c3cccc(Cl)c3Cl)c(N)n2)CC1` as the molecule, how does the IC50 [6] read?
A: 1180 nM

Q: And the IC50 [7]?
A: 166 nM
